Test results published in ChEMBL document CHEMBL1129704, “Synthesis, biological activity and quantitative structure-activity relationships of N-substituted-3,4-dihydro-2H-1-benzopyran derivatives” (Bioorg Med Chem Lett, 1996).

Experiments:
[1] = target: T1, D(2) dopamine receptor (Homo sapiens, UniProt P14416); test: Binding affinity towards Dopamine receptor D2 by displacement of [3H]-Raclopride.
[2] = target: T2, D(1A) dopamine receptor (Homo sapiens, UniProt P21728); test: Compound was evaluated for the binding affinity towards Dopamine receptor D1 by displacement of […].
T2 sequence (P21728 whole entry): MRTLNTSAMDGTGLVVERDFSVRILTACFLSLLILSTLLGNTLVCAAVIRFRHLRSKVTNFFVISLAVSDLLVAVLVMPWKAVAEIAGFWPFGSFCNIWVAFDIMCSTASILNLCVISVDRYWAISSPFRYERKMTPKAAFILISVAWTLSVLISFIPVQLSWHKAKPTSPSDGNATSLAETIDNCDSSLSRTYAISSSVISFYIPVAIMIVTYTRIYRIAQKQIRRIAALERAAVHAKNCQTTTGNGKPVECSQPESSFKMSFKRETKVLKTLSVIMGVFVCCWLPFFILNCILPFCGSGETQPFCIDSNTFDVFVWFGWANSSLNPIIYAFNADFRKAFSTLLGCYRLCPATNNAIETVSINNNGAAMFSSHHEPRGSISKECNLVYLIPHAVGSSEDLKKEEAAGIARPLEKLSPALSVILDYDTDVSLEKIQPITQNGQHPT

[3] = target: T3, 5-hydroxytryptamine receptor 2C (Homo sapiens, UniProt P28335); test: Compound was evaluated for the binding affinity towards 5-hydroxytryptamine 2C receptor by displacement of [3H]-Ketanserin
T3 sequence (P28335 whole entry): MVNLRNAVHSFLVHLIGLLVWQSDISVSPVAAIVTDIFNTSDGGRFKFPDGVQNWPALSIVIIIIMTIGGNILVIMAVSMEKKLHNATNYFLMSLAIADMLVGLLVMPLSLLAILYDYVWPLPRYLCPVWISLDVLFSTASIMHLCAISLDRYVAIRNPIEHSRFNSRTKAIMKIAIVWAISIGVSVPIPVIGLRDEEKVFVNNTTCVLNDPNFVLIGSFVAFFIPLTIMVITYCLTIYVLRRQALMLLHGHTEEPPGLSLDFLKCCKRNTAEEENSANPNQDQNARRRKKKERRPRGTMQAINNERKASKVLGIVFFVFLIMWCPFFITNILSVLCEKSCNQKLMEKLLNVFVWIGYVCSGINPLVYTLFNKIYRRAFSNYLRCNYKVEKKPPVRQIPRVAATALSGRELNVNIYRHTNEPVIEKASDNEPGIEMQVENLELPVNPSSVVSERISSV

[4] = target: T4, 5-hydroxytryptamine receptor 1B (Homo sapiens, UniProt P28222); test: Binding affinity towards 5-hydroxytryptamine 1B receptor by displacement of [3H]5-HT.
T4 sequence (P28222 whole entry): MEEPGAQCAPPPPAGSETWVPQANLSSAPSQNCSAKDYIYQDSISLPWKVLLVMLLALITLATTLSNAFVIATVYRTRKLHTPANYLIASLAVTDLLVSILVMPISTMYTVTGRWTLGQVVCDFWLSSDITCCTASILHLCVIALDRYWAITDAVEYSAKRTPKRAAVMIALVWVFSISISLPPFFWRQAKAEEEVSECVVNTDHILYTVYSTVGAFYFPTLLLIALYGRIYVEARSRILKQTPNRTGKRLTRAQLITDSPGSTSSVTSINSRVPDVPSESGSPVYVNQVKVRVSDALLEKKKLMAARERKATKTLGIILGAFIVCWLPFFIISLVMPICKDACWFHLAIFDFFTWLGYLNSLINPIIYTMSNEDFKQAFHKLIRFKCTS

[5] = target: 5-hydroxytryptamine receptor 2A (Homo sapiens, UniProt P28223); test: Binding affinity towards 5-hydroxytryptamine 2A receptor by displacement of [3H]ketanserin
Sequence of 5-hydroxytryptamine receptor 2A (P28223 whole entry): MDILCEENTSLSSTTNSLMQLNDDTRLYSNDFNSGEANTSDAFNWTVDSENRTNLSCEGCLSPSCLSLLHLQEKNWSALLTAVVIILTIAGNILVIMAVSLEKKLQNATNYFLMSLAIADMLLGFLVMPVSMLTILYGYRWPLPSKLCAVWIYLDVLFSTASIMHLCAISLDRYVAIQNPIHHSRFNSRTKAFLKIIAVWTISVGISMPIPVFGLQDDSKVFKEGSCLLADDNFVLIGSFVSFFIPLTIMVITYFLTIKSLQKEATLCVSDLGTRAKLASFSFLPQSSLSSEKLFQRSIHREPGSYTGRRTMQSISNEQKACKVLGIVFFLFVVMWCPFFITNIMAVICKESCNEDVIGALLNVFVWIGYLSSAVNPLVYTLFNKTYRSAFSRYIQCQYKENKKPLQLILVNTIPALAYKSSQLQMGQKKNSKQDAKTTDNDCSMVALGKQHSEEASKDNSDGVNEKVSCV

[6] = target: T5, 5-hydroxytryptamine receptor 1A (Homo sapiens, UniProt P08908); test: Binding affinity towards 5-hydroxytryptamine 1A receptor by displacement of [3H]8-OH-DPAT.
T5 sequence (P08908 whole entry): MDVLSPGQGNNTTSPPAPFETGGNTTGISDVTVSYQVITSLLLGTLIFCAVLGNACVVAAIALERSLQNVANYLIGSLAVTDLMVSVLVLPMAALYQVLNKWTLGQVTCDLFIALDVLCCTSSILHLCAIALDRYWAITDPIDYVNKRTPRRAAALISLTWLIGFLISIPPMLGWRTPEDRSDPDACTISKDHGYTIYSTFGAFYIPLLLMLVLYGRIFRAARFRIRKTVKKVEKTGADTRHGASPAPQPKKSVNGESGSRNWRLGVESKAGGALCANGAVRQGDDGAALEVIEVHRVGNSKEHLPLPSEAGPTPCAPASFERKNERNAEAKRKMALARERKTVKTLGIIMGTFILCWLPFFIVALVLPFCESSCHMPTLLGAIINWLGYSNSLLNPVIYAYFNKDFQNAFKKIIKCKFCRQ

[7] = target: T2, D(1A) dopamine receptor; test: Compound was evaluated for the Dopamine receptor D1 by displacement of [3H]SCH-23390.
[8] = target: T2, D(1A) dopamine receptor; test: Binding affinity towards Dopamine receptor D1 by displacement of [3H]SCH-23,390
[9] = target: T4, 5-hydroxytryptamine receptor 1B; test: Compound was evaluated for the binding affinity towards 5-hydroxytryptamine 1B receptor by displacement of […].
[10] = target: T1, D(2) dopamine receptor; test: Compound was evaluated for the binding affinity towards Dopamine receptor D2 by displacement of […].

T1 sequence (P14416 whole entry): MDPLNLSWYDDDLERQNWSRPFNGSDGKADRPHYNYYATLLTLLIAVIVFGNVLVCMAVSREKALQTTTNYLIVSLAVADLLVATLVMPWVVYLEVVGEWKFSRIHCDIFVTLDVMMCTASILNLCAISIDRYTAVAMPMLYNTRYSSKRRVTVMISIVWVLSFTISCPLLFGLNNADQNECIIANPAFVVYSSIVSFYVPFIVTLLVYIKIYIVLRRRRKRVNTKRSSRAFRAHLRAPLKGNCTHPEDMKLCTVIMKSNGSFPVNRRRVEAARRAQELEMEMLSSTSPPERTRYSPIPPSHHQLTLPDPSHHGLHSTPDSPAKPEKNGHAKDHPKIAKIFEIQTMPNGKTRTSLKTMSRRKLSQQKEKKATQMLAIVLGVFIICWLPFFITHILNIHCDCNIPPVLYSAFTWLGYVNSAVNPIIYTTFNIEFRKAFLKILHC

SMILES	IC50 [1] [nM]	IC50 [2] [µM]	IC50 [3] [µM]	IC50 [4] [µM]	IC50 [5] [µM]	IC50 [6] [nM]	IC50 [7] [µM]	IC50 [8] [µM]	IC50 [9] [µM]	IC50 [10] [nM]
CCCN(CCCCN1C(=O)CC2(CCCC2)CC1=O)C1COc2cccc(OC)c2C1 (stereo unspecified)	10	–	–	–	1	–	39.8	–	–	–
CCCN1CCN(Cc2ccccc2)CC12COc1cccc(OC)c1C2 (stereo unspecified)	–	–	–	35.5	24.5	15800	–	–	–	–
CCCN(CCC)CC1(N(CCC)CCC)COc2cccc(OC)c2C1 (stereo unspecified)	–	–	–	138	214	4170	–	–	–	–
CCCN1CCN(CCC)C2(COc3cccc(OC)c3C2)C1 (stereo unspecified)	–	–	–	> 100	10	3020	–	–	–	–

The remaining molecules from weak to strong by IC50 [4], led by results:

IC50 [1] [nM]	IC50 [2] [µM]	IC50 [3] [µM]	IC50 [4] [µM]	IC50 [5] [µM]	IC50 [6] [nM]	IC50 [7] [µM]	IC50 [8] [µM]	IC50 [9] [µM]	IC50 [10] [nM]	SMILES
2570	34.7	33.9	22.9	15.8	234	–	–	–	–	CCCN(CCC)CC1COc2cccc(OC)c2C1 (stereo unspecified)
1780	–	–	7.41	7.76	513	–	13.8	–	–	CCCN(CCCCN1C(=O)CC2(CCCC2)CC1=O)CC1COc2cccc(OC)c2C1 (stereo unspecified)
67.6	–	–	6.92	0.0562	6.31	–	3.31	–	–	O=C1CC2(CCCC2)CC(=O)N1CCCCNCC1COc2ccccc2C1 (stereo unspecified)
–	–	–	3.8	–	10.7	–	> 10	6.61	1100	COc1cccc2c1CC1(CCCN1CCCCN1C(=O)CC3(CCCC3)CC1=O)CO2 (stereo unspecified)
29.5	–	–	3.02	0.049	0.129	–	0.832	–	–	COc1cccc2c1CC(CNCCCCN1C(=O)CC3(CCCC3)CC1=O)CO2 (stereo unspecified)
–	–	–	1.58	11.2	15800	–	–	–	–	CCCN1CCN(CCCCN2C(=O)CC3(CCCC3)CC2=O)CC12COc1cccc(OC)c1C2 (stereo unspecified)
